For the data set the following is noted: Liquid.
The mark [1] stands for this setting: Visual observation in an unstirred cell.

Each structure is given as a SMILES string. ± gives the expanded uncertainty stated by the source.

Turning to `C[C@@H]1CCCC[C@H]1C` (relative stereo) [trans-1,2-dimethylcyclohexane], for the setting “Visual”, the Critical molar volume worked out at 0.00044 ± 2e-05 m3/mol and the Critical pressure amounted to 3080 ± 30 kPa. In addition, the Critical temperature under setting [1] turned out to be 596.3 ± 0.3 K.

As to `CC(C)(C)C1CCCCC1` [1,1-dimethylethylcyclohexane], under “Visual”, the Critical molar volume is reported as 0.0005 ± 2e-05 m3/mol and the Critical pressure was 2770 ± 30 kPa. The Critical temperature under setting [1] stood at 646.9 ± 0.2 K.

Take `COCCOC` [1,2-dimethoxyethane]: under “Visual”, the Critical molar volume was 0.00031 ± 2e-05 m3/mol and the Critical pressure was 3830 ± 40 kPa. For the same compound, the Critical temperature under setting [1] came to 535.32 ± 0.24 K.

As to `OCC1CCC(CO)CC1` (centres undefined) [1,4-bis(hydroxymethyl)cyclohexane], for the setting “Capillary flow”, the Critical pressure amounted to 4000 ± 240 kPa and the Critical temperature is 800.3 ± 4 K.

Regarding `COCC(C)=O` [1-methoxy-2-propanone], for the setting “Capillary flow”, the Critical pressure was found to be 4210 ± 90 kPa and the Critical temperature worked out at 584 ± 2 K.

For the compound `CCC(=O)OC(C)COC` (centres undefined) [1-methoxypropan-2-yl propionate], where the note is “Capillary flow”, the Critical pressure is listed as 2600 ± 80 kPa and the Critical temperature is 611.7 ± 2.4 K.

For `C=C(C)OC(C)=O` [1-methylvinyl ethanoate], for the setting “Capillary flow”, the Critical pressure was found to be 3630 kPa and the Critical temperature is on record as 549.8 ± 2 K.

With `CC(C)C(O)C(C)(C)CO` (centres undefined) [2,2,4-trimethyl-1,3-pentanediol], under “Capillary flow”, the Critical pressure stood at 3110 ± 140 kPa and the Critical temperature amounted to 708.2 ± 3.2 K.

As for `C=C(C)CC(C)(C)C` [2,4,4-trimethyl-1-pentene], where the note is “Capillary flow”, the Critical pressure turned out to be 2730 ± 120 kPa and the Critical temperature was 550.7 ± 4 K.

`COCCOCCOCCOCCOC` [2,5,8,11,14-pentaoxapentadecane]: under “Capillary flow”, the Critical pressure stood at 1980 ± 120 kPa and the Critical temperature is 726.6 ± 4 K.

Consider `COCCOCCOCCOC` [2,5,8,11-tetraoxadodecane], for which, where the note is “Capillary flow”, the Critical pressure worked out at 2310 ± 60 kPa and the Critical temperature turned out to be 681.2 ± 2.4 K.

In the case of `COCCOCCOC` [2,5,8-trioxanonane], under “Capillary flow”, the Critical pressure is 2830 ± 120 kPa and the Critical temperature amounted to 619.7 ± 4 K.

In the case of `CC(C)CCCC(C)CCCC(C)CCCCC(C)CCCC(C)CCCC(C)C` (centres undefined) [2,6,10,15,19,23-hexamethyltetracosane], where the note is “Capillary flow”, the Critical pressure stood at 657 ± 67 kPa and the Critical temperature was found to be 805 ± 20 K.

Consider `CCOCCO` [2-ethoxyethan-1-ol], for which, for the setting “Capillary flow”, the Critical pressure is reported as 4200 ± 110 kPa and the Critical temperature is reported as 598.9 ± 4 K.

In the case of `C=CC(=O)OCC(CC)CCCC` (centres undefined) [2-ethylhexyl 2-propenoate], where the note is “Capillary flow”, the Critical pressure stood at 2080 ± 140 kPa and the Critical temperature stood at 672.5 ± 6 K.

Consider `COC(C)CO` (centres undefined) [2-methoxy-1-propanol], for which, where the note is “Capillary flow”, the Critical pressure is listed as 4310 ± 140 kPa and the Critical temperature is 596.6 ± 3 K.

Consider `CC(C)C=O` [2-methylpropanal], for which, under “Capillary flow”, the Critical pressure is listed as 4210 ± 140 kPa and the Critical temperature is on record as 519 ± 3 K.

With `CC(C)C#N` [2-methylpropanenitrile], for the setting “Capillary flow”, the Critical pressure was determined as 3672 ± 150 kPa and the Critical temperature is 560.8 ± 2 K.

`Cc1cccs1` [2-methylthiophene]: for the setting “Capillary flow”, the Critical pressure is recorded as 4620 ± 140 kPa and the Critical temperature turned out to be 602 ± 2 K.

For `OCCOc1ccccc1` [2-phenoxyethanol], under “Capillary flow”, the Critical pressure is given as 3860 ± 120 kPa and the Critical temperature was determined as 749.4 ± 2 K.

On to `O=C1CCCN1` [2-pyrrolidinone], for which, for the setting “Capillary flow”, the Critical pressure is recorded as 5590 ± 220 kPa and the Critical temperature came to 789.1 ± 3.6 K.

For the compound `COCCC#N` [3-methoxypropanenitrile], where the note is “Capillary flow”, the Critical pressure amounted to 4040 ± 120 kPa and the Critical temperature was 650.9 ± 2.4 K.

`COC(C)OC` [3-methyl-2,4-dioxapentane]: where the note is “Capillary flow”, the Critical pressure was 4300 ± 260 kPa and the Critical temperature came out at 511.6 ± 5.6 K.

Regarding `Cc1ccsc1` [3-methylthiophene], under “Capillary flow”, the Critical pressure turned out to be 4620 ± 140 kPa and the Critical temperature worked out at 607.3 ± 3 K.

For `Cc1ccc(C=O)cc1` [4-methylbenzaldehyde], where the note is “Capillary flow”, the Critical pressure came to 3920 ± 90 kPa and the Critical temperature is 715.8 ± 4 K.

For the compound `CC(C)(C)c1ccccc1` [(1,1-dimethylethyl)benzene], under “Visual”, the Critical molar volume was 0.00048 ± 2e-05 m3/mol and the Critical pressure was determined as 2900 ± 30 kPa. Moreover, the Critical temperature under setting [1] was determined as 646.9 ± 0.2 K.

Consider `CC(C)C1CCCCC1` [(1-methylethyl)cyclohexane], for which, for the setting “Visual”, the Critical molar volume was 0.00048 ± 2e-05 m3/mol and the Critical pressure is listed as 2940 ± 30 kPa. The Critical temperature under setting [1] worked out at 635.3 ± 0.2 K.

With `CCC(C)c1ccccc1` (centres undefined) [(1-methylpropyl)benzene], under “Visual”, the Critical molar volume is listed as 0.00048 ± 2e-05 m3/mol and the Critical pressure came out at 3030 ± 30 kPa. The Critical temperature under setting [1] is on record as 653 ± 0.2 K.

Consider `CCN(CC)CCO` [(diethylamino)ethanol], for which, for the setting “Capillary flow”, the Critical pressure is recorded as 3247 ± 130 kPa and the Critical temperature was 625.9 ± 4 K.

Turning to `CC(=O)N(C)C` [N,N-dimethylethanamide], where the note is “Capillary flow”, the Critical pressure stood at 4260 ± 120 kPa and the Critical temperature stood at 660.2 ± 2.6 K.

For the compound `OCCN1CCNCC1` [N-(2-hydroxyethyl)piperazine], where the note is “Capillary flow”, the Critical pressure was 3980 ± 480 kPa and the Critical temperature amounted to 760 ± 12 K.

Consider `CNC(C)=O` [N-methylacetamide], for which, for the setting “Capillary flow”, the Critical pressure is 5090 ± 200 kPa and the Critical temperature was 707.4 ± 2 K.

With `CNC=O` [N-methylformamide], for the setting “Capillary flow”, the Critical pressure was 6080 ± 260 kPa and the Critical temperature came out at 715.6 ± 4 K.

For the compound `CN1CCCCC1` [N-methylpiperidine], under “Capillary flow”, the Critical pressure is on record as 3660 ± 160 kPa and the Critical temperature is reported as 581.5 ± 3.6 K.

Turning to `Cn1cccc1` [N-methylpyrrole], for the setting “Capillary flow”, the Critical pressure amounted to 4210 ± 140 kPa and the Critical temperature is recorded as 587.4 ± 3 K.

`CN1CCCC1` [N-methylpyrrolidine]: under “Visual”, the Critical molar volume was 0.0003 ± 2e-05 m3/mol and the Critical pressure is listed as 4000 ± 40 kPa. The Critical temperature under setting [1] came out at 548.62 ± 0.24 K.

Take `Sc1ccccc1` [benzenethiol]: under “Capillary flow”, the Critical pressure was 4650 ± 180 kPa and the Critical temperature is on record as 689.2 ± 4 K.

Regarding `C=C(C)C(=O)OCCCC` [butyl 2-methyl-2-propenoate], under “Capillary flow”, the Critical pressure came to 2520 ± 120 kPa and the Critical temperature is recorded as 615.8 ± 4 K.

Take `CCCCc1ccccc1` [butylbenzene]: where the note is “Visual”, the Critical molar volume is 0.0005 ± 2e-05 m3/mol and the Critical pressure is 2890 ± 30 kPa. The Critical temperature under setting [1] was 660.3 ± 0.2 K.

On to `CCCCC1CCCCC1` [butylcyclohexane], for which, for the setting “Visual”, the Critical molar volume worked out at 0.00056 ± 2e-05 m3/mol and the Critical pressure turned out to be 2510 ± 30 kPa. Under setting [1], the Critical temperature is 649.3 ± 0.2 K.

In the case of `S=C=S` [carbon disulfide], where the note is “Visual”, the Critical molar volume is on record as 0.000176 ± 9e-06 m3/mol and the Critical pressure stood at 7330 ± 60 kPa. In addition, under setting [1], the Critical temperature stood at 552.5 ± 0.2 K.

On to `C[C@@H]1CCCC[C@@H]1C` [cis-1,2-dimethylcyclohexane], for which, for the setting “Visual”, the Critical molar volume amounted to 0.00041 ± 2e-05 m3/mol and the Critical pressure is given as 3350 ± 30 kPa. For the same compound, under setting [1], the Critical temperature was 607.29 ± 0.24 K.

As to `C[C@@H]1CCC[C@H](C)C1` [cis-1,3-dimethylcyclohexane], under “Visual”, the Critical molar volume was found to be 0.00043 ± 2e-05 m3/mol and the Critical pressure amounted to 3040 ± 30 kPa. Also, the Critical temperature under setting [1] worked out at 586.1 ± 0.2 K.

On to `SC1CCCCC1` [cyclohexanethiol], for which, under “Capillary flow”, the Critical pressure is on record as 3970 ± 160 kPa and the Critical temperature is given as 669.6 ± 4 K.

Take `CCOC(=O)OCC` [diethyl carbonate]: under “Capillary flow”, the Critical pressure is listed as 3080 ± 120 kPa and the Critical temperature stood at 578.2 ± 3 K.

As to `CCCCCCOCCCCCC` [dihexyl ether], for the setting “Capillary flow”, the Critical pressure is given as 1763 ± 110 kPa and the Critical temperature is given as 663 ± 3 K.

As for `COCOC` [dimethoxymethane], for the setting “Capillary flow”, the Critical pressure was 4550 ± 280 kPa and the Critical temperature is recorded as 488.9 ± 3.2 K.

`COC(=O)c1ccc(C(=O)OC)cc1` [dimethyl 1,4-benzenedicarboxylate]: where the note is “Capillary flow”, the Critical pressure was 2760 ± 400 kPa and the Critical temperature was found to be 779 ± 20 K.

Consider `COC(=O)OC` [dimethyl carbonate], for which, where the note is “Capillary flow”, the Critical pressure was found to be 4450 ± 130 kPa and the Critical temperature came out at 556.3 ± 3 K.

Turning to `CN(C)C=O` [dimethylformamide], for the setting “Capillary flow”, the Critical pressure was found to be 4720 ± 140 kPa and the Critical temperature is reported as 650.6 ± 3 K.

As to `CCCCCCCCOCCCCCCCC` [dioctyl ether], for the setting “Capillary flow”, the Critical pressure was found to be 1446 ± 85 kPa and the Critical temperature is on record as 727 ± 4 K.

For `c1ccc(Cc2ccccc2)cc1` [diphenylmethane], for the setting “Capillary flow”, the Critical pressure is 2920 ± 60 kPa and the Critical temperature is recorded as 770 ± 2 K.

Regarding `C=C(C)C(=O)OCC` [ethyl 2-methylpropenoate], under “Capillary flow”, the Critical pressure was found to be 3170 ± 120 kPa and the Critical temperature came out at 572 ± 3 K.

Turning to `C=CC(=O)OCC` [ethyl propenoate], for the setting “Capillary flow”, the Critical pressure came out at 3710 ± 100 kPa and the Critical temperature is recorded as 555.2 ± 2 K.

Take `CCC1CCCCC1` [ethylcyclohexane]: for the setting “Visual”, the Critical molar volume was 0.00043 ± 2e-05 m3/mol and the Critical pressure is reported as 3110 ± 30 kPa. The Critical temperature under setting [1] is given as 605.9 ± 0.2 K.

For `O=C1OCCO1` [ethylene carbonate], for the setting “Capillary flow”, the Critical pressure is 5280 ± 800 kPa and the Critical temperature is given as 786 ± 10 K.

As for `CC(=O)OCCOC(C)=O` [ethylene diacetate], for the setting “Capillary flow”, the Critical pressure is 3080 ± 100 kPa and the Critical temperature amounted to 654.9 ± 3 K.

Take `COC(=O)CC(C)=O` [methyl 3-oxobutanoate]: under “Capillary flow”, the Critical pressure amounted to 3830 ± 140 kPa and the Critical temperature amounted to 652.8 ± 4 K.

Values taken from the NIST ThermoML archive (doi:10.1021/acs.jced.8b00298).
